What was measured:
scar formation in pigs = experiment: Remote effect of local s.c. fat injection on scar formation in pigs (RZL-012 vs Kythera/Kybella); assay type: in vivo; details: pig; for Collagen fibers in scar-tissue (H & E histology): compared with Kythera scar tissue
Description: The objective of this study is to evaluate the remote effect on local injection of RZL-012 of the invention (5-(3,6-dibromo-9H-carbazol-9-yl)-N,N,N-trimethylpentan-1-aminium) into the s.c. fat, on scar formation in pigs, compared with Kybella (an injectable formulation of Deoxycholate developed by Kythera) an agent that bluntly destroys s.c. fat.
• 1. Kythera preparation (according to published formulation): an aqueous solution of 5% Phosphatidylcholine, 4.75% Sodium deoxycholate and 0.9% Benzyl Alcohol. • 2. RZL-012 of the invention (5-(3,6-dibromo-9H-carbazol-9-yl)-N,N,N-trimethylpentan-1-aminium) of the invention preparation: 5.0% (w/v) RZL-012 in the below indicated formulation: […]
Eighty kilogram pigs were injected with either Kythera or RZL-012 of the invention preparation, into the s.c. fat (1 cm depth, 27 G needle), at 10 sites, divided into two clusters, on the right flank only. The injection at each site was of a volume of 0.5 ml. In addition, a cut through the s.c. fat was made at the midline of each pig at the right and at the left flank.
Animals were housed in the animal unit of Biotechfarm, Israel and fed on a diet weighing 2% of body weight (B.W.) per day divided to two meals, based on the last effective weekly body weighing.
After 2 months from the day of treatment, the animals were sacrificed; the scars on both sides were photographed before and after making a cross section in the middle of each scar. Thereafter, tissue samples of all cross-sections were formalin-fixed and processed for H & E histology staining.

kidney fibrosis = experiment: Unilateral ureteral ligation (UUO) kidney fibrosis model; assay type: in vivo, rat; details: male SD rats, RZL-012 15 mg s.c. into fat at Day 14 and Day 42, sacrifice 8 weeks after UUO, vs Vehicle
Method: • Animals: Male SD Rats, 250 g. • Induction of kidney fibrosis: Overnight fasted rats were anesthetized (a mixture of Ketamine 20 mg/kg and Xylazin 2 mg/kg IP). The abdominal cavity was exposed via a midline incision up to 0.5-1 cm before penis about 3 cm along. Then the bladder was lifted out and epididymal fat was remoted. The left ureter was ligated at two points with 4-0 sutures. The wound was closed in layers with the same sutures. Then animals were returned to the cages. […] The tissue sections were stained with Masson-Trichrome which enable a distinction between fibrotic tissue (staining collagen fiber in Blue) and normal viable tissue (Purple-Red) (see FIG. 6C). • Quantification of kidney fibrosis: In order to quantify, in an unbiased way, the fibrotic response in RZL-treated vs. non-treated rats, the dimensions of the fibrotic layer surrounding aortic blood vessel, were measured. All aortic vessels in each affected kidney were analyzed in the following way: The vessel wall consists of two components, the usual Muscular layer and an outer layer, excessively rich in collagen, in these kidneys, hereby defined as “Adventitia” (FIG. 6C). The net width of the adventitia and that of the Muscular layer were calculated as follows: […]

SMILES: C[N+](C)(C)CCCCCn1c2ccc(Br)cc2c2cc(Br)ccc21 [RZL-012, 5-(3,6-dibromo-9H-carbazol-9-yl)-N,N,N-trimethylpentan-1-aminium]
- Macroscopic view of the scar at the left, non-treated side (scar formation in pigs; 2 months after s.c. fat injection on right flank only, external view, compared with Kythera treated pig): much finer
- Scar tissue seen after a cross section through the scar (macroscopic) (scar formation in pigs; 2 months sacrifice, cross-section through the middle of the scar, non-treated side (L)): no apparent scare tissue was observed
- Difference in the scar tissue width (scar formation in pigs; 2 months, H & E histology, careful measurement, RZL-012 vs Kythera treated pig): 4-5 times
- Collagen fibers in scar-tissue (H & E histology) (scar formation in pigs; 2 months, X20 objective magnification): less collagen fibers
- Collagen fibers in scar-tissue (H & E histology) (scar formation in pigs; 2 months, X40 objective magnification): less collagen fibers
- Width of fibrotic tissue (scar histology, H & E) (scar formation in pigs; 2 months, both sides, X10 objective magnification, RZL-012 vs Kythera treated pig): much thinner
- Kidney fibrosis (Adventitia/Muscular layers ratio, Masson-Trichrome) (kidney fibrosis): significant inhibition of kidney fibrosis
